In patent US9540343B2 (Gilead Sciences, Inc., priority 2011, dated 2017):

Columns and labels:
[1] = test system: HIV-IIIb; assay: Test A: Antiviral assay in MT4 cells; assay type: cell-based, HIV-1; details: MT-4 cells infected with HIV-IIIb, 5 days, CellTiter-Glo; for inhibition at 2 µM: Human immunodeficiency virus 1, IIIB, MT4, 120 h, read-out: % inhibition at 2 μM, percent inhibition of virus-induced cell killing, from dose response curve at 2 uM drug
[2] = in vitro; details: human, uninfected MT-4 cells, CC50 (nM), same protocol as Test A, CellTiter-Glo
Outline: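 Cytoprotection read-out: CellTiter-Glo chemiluminescence after 5 days at 37 °C of HIV-IIIb-infected MT-4 cells (m.o.i. 0.003) with compound in 10-point 3-fold dilutions, quadruplicate, 10% FBS. Cytotoxicity (CC50) measured identically without virus.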

| Compound | inhibition at 2 µM [1] [%] | CC50 at 5 days [2] [nM] | % inhibition at 2 μM ([1]; percent inhibition of virus-induced cell killing, from dose response curve at 2 uM drug) [%] |
| --- | --- | --- | --- |
| CC(C)(C)OC(=O)N1C[C@@H](c2ccccc2)C[C@H]1C(=O)N[C@@H](Cc1cc(F)cc(F)c1)c1ncccc1-c1ccc(F)c(C(N)=O)c1 [Example 148, (2S,4R)-tert-butyl 2-((S)-1-(3-(3-carbamoyl-4-fluorophenyl)pyridin-2-yl)-2-(3,5-difluorophenyl)ethylcarbamoyl)-4-phenylpyrrolidine-1-carboxylate] | 11 | 12300 | – |
| N#Cc1nn(CC(=O)N[C@@H](Cc2cc(F)cc(F)c2)c2ncccc2-c2ccc(F)c(C(N)=O)c2)cc1Br [Example 359, (S)-5-(2-(1-(2-(4-bromo-3-cyano-1H-pyrazol-1-yl)acetamido)-2-(3,5-difluorophenyl)ethyl)pyridin-3-yl)-2-fluorobenzamide] | 2 | 25300 | – |
| CCn1c(=O)c2c(n1CC(=O)N[C@@H](Cc1cc(F)cc(F)c1)c1ncccc1-c1ccc(F)c(C(N)=O)c1)CCCC2 [Example 170C, (S)-5-(2-(2-(3,5-difluorophenyl)-1-(2-(2-ethyl-3-oxo-2,3,4,5,6,7-hexahydro-1H-indazol-1-yl)acetamido)ethyl)pyridin-3-yl)-2-fluorobenzamide] | 22 | > 53200 | – |
| Cc1ccc2cc(-c3cccnc3[C@H](Cc3cc(F)cc(F)c3)NC(=O)Cn3nc(C(F)F)c4c3C(F)(F)C3CC43)ccc2n1 (stereo partly drawn) [Example 75, (S)—N-(1-(3-(2-methylquinoline-6-yl)-pyridin-2-yl)-2-(3,5-difluorophenyl)ethyl)-2-(3-(difluoromethyl)-5,6-dihydro-4,5-(methano)-6,6-difluoro-cyclopenta[c]pyrazol-1(4H)-yl)acetamide] | 17 | 10700 | – |
| NC(=O)c1cc(-c2cccnc2[C@H](Cc2cc(F)cc(F)c2)NC(=O)Cn2cc(C=O)c(C(F)(F)F)n2)ccc1F [Example 296, (S)-5-(2-(2-(3,5-difluorophenyl)-1-(2-(4-formyl-3-(trifluoromethyl)-1H-pyrazol-1-yl)acetamido)ethyl)pyridin-3-yl)-2-fluorobenzamide] | 96 | 10800 | – |
| NC(=O)c1cc(-c2cccnc2[C@H](Cc2cc(F)cc(F)c2)NC(=O)Cn2nc(C(F)F)cc2C(F)F)ccc1F [Example 505, (S)-5-(2-(1-(2-(3,5-bis(difluoromethyl)-1H-pyrazol-1-yl)acetamido)-2-(3,5-difluorophenyl)ethyl)pyridin-3-yl)-2-fluorobenzamide] | 28 | > 47400 | – |
| NC(=O)c1cc(-c2cccnc2[C@H](Cc2cc(F)cc(F)c2)NC(=O)Cn2ncc3c(Cl)cc(Cl)cc32)ccc1F [Example 550, (S)-5-(2-(1-(2-(4,6-dichloro-1H-indazol-1-yl)acetamido)-2-(3,5-difluorophenyl)ethyl)pyridin-3-yl)-2-fluorobenzamide] | 1 | 17000 | – |
| O=C(Cn1nc(C(F)F)cc1C(F)F)N[C@@H](Cc1cc(F)cc(F)c1)c1ncccc1-c1cnc2[nH]ccc2c1 [Example 512C, (S)—N-(1-(3-(1H-pyrrolo[2,3-b]pyridin-5-yl)pyridin-2-yl)-2-(3,5-difluorophenyl)ethyl)-2-(3,5-bis(difluoromethyl)-1H-pyrazol-1-yl)acetamide] | 60 | 19900 | – |
| CN(C)C(C(=O)N[C@@H](Cc1cc(F)cc(F)c1)c1ncccc1-c1ccc(F)c(C(N)=O)c1)c1ccc(F)cc1 (single isomer, unassigned) [Example 503] | – | 40400 | 3 |
| Cc1cc(F)ccc1-c1cccnc1[C@H](Cc1cc(F)cc(F)c1)NC(=O)Cc1c[nH]c2ccc(F)cc12 [Example 404, (S)—N-(2-(3,5-difluorophenyl)-1-(3-(4-fluoro-2-methylphenyl)pyridin-2-yl)ethyl)-2-(5-fluoro-1H-indol-3-yl)acetamide] | 0 | 44600 | – |
| NC(=O)c1cc(-c2cccnc2[C@H](Cc2cc(F)cc(F)c2)NC(=O)Cn2nc(C(F)(F)F)c3c2CCSC3)ccc1F [Example 232, (S)-5-(2-(2-(3,5-difluorophenyl)-1-(2-(3-(trifluoromethyl)-6,7-dihydrothiopyrano[4,3-c]pyrazol-1(4H)-yl)acetamido)ethyl)pyridin-3-yl)-2-fluorobenzamide] | 61 | 18700 | – |
| NC(=O)c1cc(-c2cccnc2[C@H](Cc2cc(F)cc(F)c2)NC(=O)[C@@H]2CC[C@H](c3ccccc3)N2)ccc1F [Example 182, (2S,5R)—N—((S)-1-(3-(3-carbamoyl-4-fluorophenyl)pyridin-2-yl)-2-(3,5-difluorophenyl)ethyl)-5-phenylpyrrolidine-2-carboxamide] | 8 | 51000 | – |
| CN(C)C(=O)c1ccc(-c2cccnc2[C@H](Cc2cc(F)cc(F)c2)NC(=O)Cc2c[nH]c3ccc(O)cc23)cc1 [Example 47, (S)-4-(2-(2-(3,5-difluorophenyl)-1-(2-(5-hydroxy-1H-indol-3-yl)acetamido)ethyl)pyridin-3-yl)-N,N-dimethylbenzamide] | 59 | > 53000 | – |
| CC(C)c1cc(C(F)(F)F)nn1CC(=O)N[C@@H](Cc1cc(F)cc(F)c1)c1ncccc1-c1ccc(F)c(C(N)=O)c1 [Example 252, (S)-5-(2-(2-(3,5-difluorophenyl)-1-(2-(5-isopropyl-3-(trifluoromethyl)-1H-pyrazol-1-yl)acetamido)ethyl)pyridin-3-yl)-2-fluorobenzamide] | 18 | 19200 | – |
| Cc1[nH]c2ccc(F)cc2c1CC(=O)N[C@@H](Cc1cc(F)cc(F)c1)c1ncccc1-c1ccc(Cl)cc1 [Example 597, (S)—N-(1-(3-(4-chlorophenyl)pyridin-2-yl)-2-(3,5-difluorophenyl)ethyl)-2-(5-fluoro-2-methyl-1H-indol-3-yl)acetamide] | 89 | 8650 | – |
| NC(=O)c1cc(-c2cccnc2[C@H](Cc2cc(F)cc(F)c2)NC(=O)Cn2cc(C(F)(F)F)cn2)ccc1F [Example 570, (S)-5-(2-(2-(3,5-difluorophenyl)-1-(2-(4-(trifluoromethyl)-1H-pyrazol-1-yl)acetamido)ethyl)pyridin-3-yl)-2-fluorobenzamide] | 5 | > 53200 | – |
| O=C(Cc1c[nH]c2ccc(F)cc12)N[C@@H](Cc1cc(F)cc(F)c1)c1ncccc1-c1ccc(F)c(F)c1 [Example 406, (S)—N-(2-(3,5-difluorophenyl)-1-(3-(3,4-difluorophenyl)pyridin-2-yl)ethyl)-2-(5-fluoro-1H-indol-3-yl)acetamide] | 27 | 11400 | – |
| COC1CN(C(=O)Cc2c(C)n(CC(=O)N[C@@H](Cc3cc(F)cc(F)c3)c3ncccc3-c3ccc(F)c(C(N)=O)c3)c3ccccc23)C1 [Example 579D, (S)-5-(2-(2-(3,5-difluorophenyl)-1-(2-(3-(2-(3-methoxyazetidin-1-yl)-2-oxoethyl)-2-methyl-1H-indol-1-yl)acetamido)ethyl)pyridin-3-yl)-2-fluorobenzamide] | 18 | > 53200 | – |
| Cc1cc2ncn(CC(=O)N[C@@H](Cc3cc(F)cc(F)c3)c3ncccc3-c3cccc(C(N)=O)c3)c2cc1C [Example 278, (S)-3-(2-(2-(3,5-difluorophenyl)-1-(2-(5,6-dimethyl-1H-benzo[d]imidazol-1-yl)acetamido)ethyl)pyridin-3-yl)benzamide] | 121 | 8530 | – |
